Laboratory results published in article PMC11222350, “Preclinical evaluation of [^18F]FP-CIT, the radiotracer targeting dopamine transporter for diagnosing Parkinson’s disease: pharmacokinetic and efficacy analysis” (EJNMMI Research, 2024).
Where two headings read alike, the source gives them in different places.

Experiments:
[1] = Metabolites of cold authentic FP-CIT in normal rats (LC-MS); type: in vivo, Sprague–Dawley rats; conditions: FP-CIT 5 mg/kg i.v.; for presence in brain samples: 30 and 60 min
Method: Male Sprague–Dawley Rats (group III) were anesthetized with 2% isoflurane in oxygen, and cold authentic FP-CIT dissolved in 10% DMSO normal saline diluent was intravenously injected via the tail vein (5 mg/kg; 5 mg/mL). Rats were sacrificed at different time points (30 and 60 min after injection, n = 3 each), and the tissues of interest (i.e., blood, urine, brain, and liver) were harvested. One rat injected with 10% DMSO in normal saline was used as the negative control. Plasma obtained from the blood samples was centrifuged at 3000 rpm for 10 min at room temperature. Urine samples were collected from the urinary bladder using a 1 mL syringe at specific time points. After adding ice-cold acetonitrile at a volume of onefold (v/v) for each plasma and urine sample obtained, the samples were centrifuged at 12,000 rpm for 5 min at 4 °C and the supernatant was collected. The brain and liver tissues were separately homogenized in 1 mL of a 0.9% normal saline/acetonitrile (95:5 v/v) solution using a homogenizer. The obtained homogenate was deproteinized using 500 μL of acetonitrile and centrifuged (4 °C, 12,000 rpm, 10 min), followed by collecting the supernatant. The supernatants obtained by centrifuging the blood, brain, liver, and urine samples were filtered with 2 mL of acetonitrile using a 0.45 μm UHP syringe filter to remove residues. Compounds identified as FP-CIT metabolites in a previous study were modified to a cold-fluorine-authentic form and used as positive controls. The filtered samples were analyzed qualitatively and quantitatively based on the positive controls.
The ISQEM LC–MS system (Thermo Fisher, Waltham, MA, USA) equipped with OptimaPak C18 (5 μm, 4.6 × 250 mm) column was used. The HPLCf elution condition (A: 0.1% (v/v) trifluoroacetic acid, B: acetonitrile) was as follows: a gradient elution; 90% (A), 10% (B) (0 min) → 40% (A), 60% (B) (35 min); and a flow rate of 1 mL/min. The injection volume of each sample was 20 μL. Electrospray ionization mass was scanned in both the positive and negative modes. Mass range (amu) was 100–2000; dwell times, 0.1 s; source voltage, 3000 V (positive) and − 2000 V (negative); and vaporizer temperature, 550 °C; nitrogen was used as nebulizing gas. For analysis, the masses of [M + H]^+ of cold authentic FP-CIT administrated and metabolites were extracted from the obtained total ion chromatogram, and Gaussian distribution curve fitting was conducted.

[2] = cited from earlier work
dopamine transporter [3] = conditions: PET scanning; cited from earlier work
dopamine transporter [4] = system: dopamine transporter; set-up: method as in PMID 30028339, PMID 23758882, PMID 15908232; conditions: cited from earlier work
[5] = set-up: method as in earlier work; conditions: cited from earlier work
serotonin transporter = conditions: cited from earlier work

## COC(=O)C1C(c2ccc(I)cc2)CC2CCC1N2CCCF (stereo not drawn) [FP-CIT, N-(3-fluoropropyl)-2β-carboxymethoxy-3β-(4-iodophenyl) nortropane]
[1]; 30 min after administration
  metabolite distribution in blood, brain, liver, urine EIC: mainly observed in all the EIC of metabolic pathways

## O=C(O)C1C(c2ccc(I)cc2)CC2CCC1N2CCCF (centres unmarked) [FP-CIT-acid]
[1]
  presence in brain samples: Neither FP-CIT-acid nor nor-β-CIT-acid was observed in the brain samples
[1]; 30 min after administration
  metabolite distribution, urine: most distinctly observed in the urine samples
[2]
  amount relative to other forms: < 0.3%
  blood–brain barrier penetration: cannot penetrate the blood–brain barrier

## [11CH3]OC(=O)C1C(c2ccc(I)cc2)CC2CCC1N2CCCF (centres unmarked) [[^11C]FP-CIT]
Dopamine transporter [3]
  time of transient equilibrium in time activity curves (specific binding to the striatum): 70 to 90 min

## CN1[C@H]2CC[C@@H]1[C@@H](CN(CC[S-])CC[N-]CC[S-])[C@@H](c1ccc(Cl)cc1)C2.[O]=[99Tc+4] [[^99mTc]TRODAT-1]
Dopamine transporter [4]
  correlation (R) with TH IHC: 0.899

## COC(=O)[C@H]1[C@@H](c2ccc([123I])cc2)C[C@@H]2CC[C@H]1N2CCCF [[^123I]FP-CIT]
[5]; till 6 h post-injection, male Wistar rats
  injected dose excreted: approximately 10%
[5]; until 72 h, animals
  injected dose excreted: more than 80%
Dopamine transporter [4]
  correlation (R) with dopamine transporter IHC: 0.88

## COC(=O)[C@H]1C(c2ccc([123I])cc2)C[C@@H]2CC[C@H]1N2C (stereo partly drawn) [[^123I]β-CIT]
Dopamine transporter [4]
  correlation (R) with TH IHC: 0.911
  correlation (R) with dopamine transporter IHC: 0.936

## O=C(O)C1C2CCC(CC1c1ccc(I)cc1)N2 (stereo not drawn) [nor-β-CIT-acid]
[1]
  presence in brain samples: Neither FP-CIT-acid nor nor-β-CIT-acid was observed in the brain samples
[1]; 60 min post-injection
  metabolite distribution: appeared in the blood, urine, and liver samples
[2]; low-lipophilic metabolite of [^123I]FP-CIT
  blood–brain barrier penetration: difficulty penetrating the BBB

## COC(=O)C1C2CCC(CC1c1ccc(I)cc1)N2 (stereo not drawn) [nor-β-CIT]
[1]; 30 min after administration
  metabolite distribution in blood, brain, liver, urine EIC: mainly observed in all the EIC of metabolic pathways
Serotonin transporter
  affinity for serotonin transporter relative to FP-CIT: higher affinity for serotonin transporter than FP-CIT
